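96-well plates; 48 h exposure; 5 concentrations. Endpoints by linear interpolation between flanking doses. Not reached: highest tested concentration assigned. Abbreviation: GI50, concentration required for 50% inhibition of growth. TGI: concentration producing complete growth inhibition.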
How the values were obtained:
Assay in all cases: inhibition of tumour cell growth, NCI panel, 48 h
T-47D breast = tested on: T-47D breast
SK-MEL-28 melanoma = tested on: SK-MEL-28 melanoma
PC-3 prostate = tested on: PC-3 prostate
HCT-15 colon = tested on: HCT-15 colon
HS 578T breast = tested on: HS 578T breast
MOLT-4 leukemia = tested on: MOLT-4 leukemia
DU-145 prostate = tested on: DU-145 prostate
K-562 leukemia = tested on: K-562 leukemia
NCI-H23 lung = tested on: NCI-H23 lung
UACC-257 melanoma = tested on: UACC-257 melanoma

Row | SMILES | GI50 (T-47D breast) [µM] | TGI (T-47D breast) [µM] | GI50 (SK-MEL-28 melanoma) [µM] | TGI (SK-MEL-28 melanoma) [µM] | GI50 (PC-3 prostate) [µM] | TGI (PC-3 prostate) [µM] | GI50 (HCT-15 colon) [µM] | TGI (HCT-15 colon) [µM] | GI50 (HS 578T breast) [µM] | TGI (HS 578T breast) [µM] | GI50 (MOLT-4 leukemia) [µM] | TGI (MOLT-4 leukemia) [µM] | GI50 (DU-145 prostate) [µM] | TGI (DU-145 prostate) [µM] | GI50 (K-562 leukemia) [µM] | TGI (K-562 leukemia) [µM] | GI50 (NCI-H23 lung) [µM] | TGI (NCI-H23 lung) [µM] | GI50 (UACC-257 melanoma) [µM] | TGI (UACC-257 melanoma) [µM]
1 | CC(=O)c1ccc2c(c1)N(CCCN1CCN(CCO)CC1)c1ccccc1S2 | 1.94 | 5.2 | 1.73 | 3.23 | 2.4 | 9.35 | 1.99 | 5.01 | 1.66 | 4.52 | 2.99 | 8.86 | 4.55 | 15.8 | 2.52 | > 23 | 5.68 | 18.9 | 1.85 | 3.51
2 | O=C(c1ccc2ccccc2c1)c1nc2cc(F)ccc2[n+]([O-])c1C(F)(F)F | 27.6 | > 100 | 15.9 | 30.3 | 20.1 | 53.4 | 13 | 27.8 | 21.9 | 56.9 | 22.9 | 53.8 | 20.9 | 45.8 | 2.8 | 15.4 | 13 | 29.1 | 17.4 | 35.3
3 | c1ccc(-c2nc3n(c2-c2ccc4c(c2)OCO4)CCC3)nc1 | 7.99 | > 23.4 | 9.29 | > 22.8 | 6.75 | > 25 | 0.766 | > 25 | 8.24 | > 25 | 6.63 | > 21.4 | 7.22 | > 25 | 5.49 | > 25 | 9.59 | > 25 | 7.45 | 21.9
4 | CN(Cc1ccc(F)cc1)c1ccc(CO)c(Cl)c1 | 0.667 | 4.16 | 31.3 | > 100 | 20.3 | > 68.3 | 18.3 | > 100 | 27.4 | 97.3 | 21.8 | 69.3 | 29.1 | > 100 | 7.99 | > 100 | 11.6 | > 72.7 | 0.439 | 1.66
5 | C=C1C(=O)O[C@H]2[C@H]1CC/C(COC(=O)N[C@H]1C[C@H](O[C@H]3C[C@](O)(C(=O)CO)Cc4c(O)c5c(c(O)c43)C(=O)c3c(OC)cccc3C5=O)O[C@@H](C)[C@H]1O)=C\CC[C@@]1(C)O[C@@H]21 | 2.27 | 10.4 | 1.51 | 4.67 | 7.8 | 30.8 | > 50 | > 50 | 9.93 | 34 | 1.03 | 2.83 | 12.1 | > 50 | 1.58 | 11.4 | 8.36 | 18.6 | 7.17 | 13.7
